This note sets out measurements from US20250230226A1, “PLXDC1/PLXDC2 ACTIVATORS AND THEIR USE IN THE TREATMENT OF BLOOD VESSEL DISORDERS” (THE REGENTS OF THE UNIVERSITY OF CALIFORNIA, priority 2019, published 2025).

Assay [1] relates to LL/2 lung cancer tumor endothelial cells. Description: Lung LL2 ex vivo model of tumor angiogenesis. The class given is cell-based, mouse. The conditions noted are these: for 48 hrs (morphology observations): LL/2 tumor endothelial cells; for cytotoxicity at 40 µM / cytotoxicity at 20 µM: Mus musculus, Endothelial cell, 48 h, read-out: Cell death; for Cell death: drug treatment for two days, ratio of red area to total endothelial cell area. An outline of the steps: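 Live/dead imaging with FDA and PI, taken e.g. 48 h post-drug under fixed channel settings, measures treatment effects on endothelial cells sprouting from Lewis lung tumor explants. Explants were seeded in Matrigel drops and grown ~4 days in endothelial growth medium, 37 °C, 5% CO2, before dosing.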

The subject of assay [2] is CT26.CL25 colon cancer tumor endothelial cells. In words: Colon CT26 ex vivo model of tumor angiogenesis. The class given is cell-based, mouse. The note with it: for cytotoxicity at 40 µM / cytotoxicity at 20 µM / cytotoxicity at 10 µM: Mus musculus, Endothelial cell, 48 h, read-out: Cell death. An outline of the steps:
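Cell death was read by FDA (live, green) and PI (dead, red) fluorescence imaging, e.g. 48 h after treatment. Treatment began once endothelial cells had grown out of Matrigel-embedded CT26 colon tumor fragments, typically after 7 days of culture in endothelial growth medium at 37 °C.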

The structures appear in SMILES notation.

Regarding `CCCCOc1ccc(S(=O)(=O)c2cnc3ccc(SC)cc3c2N2CCCN(C)CC2)cc1` [Compound 160], the “48 hrs (morphology observations)” value in assay [1] (40 μm) was “**** (100% of endothelial cells vesicularize in cell shape and look flattened in morphology (indicating disintegration of the cell body))”. For the same compound, the cytotoxicity at 40 µM in assay [1] and in assay [2] was 100% each time. Besides, the “48 hrs (morphology observations after 48 hours)” value in assay [2] (Conc. 40 μm) is “**** (100% of endothelial cells vesicularize in cell shape and look flattened in morphology (indicating disintegration of the cell body))”.

As to `CCc1ccc(S(=O)(=O)c2cnc3ccc(OC(F)(F)F)cc3c2-n2cnc(C)c2)cc1` [Compound 117], in assay [1] (20 μm), the “48 hrs (morphology observations)” value is “*** (more than 50% but less than 100% of endothelial cells vesicularize in cell shape)”. For the same compound, the cytotoxicity at 20 µM in assay [1] and in assay [2] was 100% in each case. Further, the “48 hrs (morphology observations after 48 hours)” value in assay [2] (Conc. 20 μm) is recorded as “*** (100% of endothelial cells vesicularize in cell shape)”.

With `CCCCOc1ccc(S(=O)(=O)c2cnc3ccc(C(=O)OCC)cc3c2N2CCC(N3CCCN(C)CC3)CC2)cc1` [Compound 211], the “48 hrs (morphology observations)” value in assay [1] (40 μm) is “**** (100% of endothelial cells vesicularize in cell shape and look flattened in morphology (indicating disintegration of the cell body))”. In addition, the cytotoxicity at 40 µM in assay [1] and in assay [2] was 100% throughout. Further, the “48 hrs (morphology observations after 48 hours)” value in assay [2] (Conc. 40 μm) is “**** (100% of endothelial cells vesicularize in cell shape and look flattened in morphology (indicating disintegration of the cell body))”.

As for `COc1ccc(S(=O)(=O)c2cnc3ccc(OC(F)(F)F)cc3c2-n2cncn2)cc1` [Compound 86], the “48 hrs (morphology observations)” value in assay [1] (20 μm) was “*** (more than 50% but less than 100% of endothelial cells vesicularize in cell shape)”. Besides, the cytotoxicity at 20 µM in assay [1] worked out at 100%. For the same compound, the “48 hrs (morphology observations after 48 hours)” value in assay [2] (Conc. 10 μm) is “*** (100% of endothelial cells vesicularize in cell shape)”. Further, the cytotoxicity at 10 µM in assay [2] was 100%.

For the compound `N#Cc1ccc(S(=O)(=O)c2cnc3ccc(OC(F)(F)F)cc3c2N2CCC(N3CCCCC3)CC2)cc1` [Compound 54], in assay [1] (40 μm), the Cell death is reported as 50%. Moreover, the “48 hrs (morphology observations after 48 hours)” value in assay [2] (Conc. 40 μm) amounted to 0. In addition, in assay [2], the cytotoxicity at 40 µM turned out to be 10%.

As to `COc1ccc(S(=O)(=O)c2cnc3ccc(CC#N)cc3c2-n2cncn2)cc1` [Compound 98], the Cell death in assay [1] (20 μm) is given as 10%. For the same compound, the “48 hrs (morphology observations after 48 hours)” value in assay [2] (Conc. 10 μm) was “*** (100% of endothelial cells vesicularize in cell shape)”. Besides, in assay [2], the cytotoxicity at 10 µM stood at 50%.

As to `CCc1ccc(S(=O)(=O)c2cnc3ccc([N+](=O)[O-])cc3c2N2CCC(O)CC2)cc1` [Compound 75], the Cell death in assay [1] (40 μm) was 80%. Further, in assay [2] (Conc. 40 μm), the “48 hrs (morphology observations after 48 hours)” value is reported as 0. In addition, the cytotoxicity at 40 µM in assay [2] is 0%.

For `CCCCN(CCCC)c1c(S(=O)(=O)c2ccc(OC)cc2)cnc2ccc(C(=O)OCC)cc12` [Compound 155], the “48 hrs (morphology observations)” value in assay [1] (40 μm) is “*** (more than 50% but less than 100% of endothelial cells vesicularize in cell shape)”. The cytotoxicity at 40 µM in assay [1] was found to be 80%; in assay [2] it was 20%. Besides, in assay [2] (Conc. 40 μm), the “48 hrs (morphology observations after 48 hours)” value is recorded as “*** (100% of endothelial cells vesicularize in cell shape)”.

Take `COc1ccc(S(=O)(=O)c2cnc3ccc(SC)cc3c2N2CCCN(C)CC2)cc1OC` [Compound 154]: the “48 hrs (morphology observations)” value in assay [1] (40 μm) is given as “* (50% or less of cells vesicularize in cell shape)”. The cytotoxicity at 40 µM in assay [1] and in assay [2] was 30% throughout. In assay [2] (Conc. 40 μm), the “48 hrs (morphology observations after 48 hours)” value is “* (50% or less of cells vesicularize in cell shape)”.

With `CCc1ccc(S(=O)(=O)c2cnc3ccc(OC(F)(F)F)cc3c2NCCO)cc1` [Compound 95], the Cell death in assay [1] (40 μm) is recorded as 10%. In assay [2] (Conc. 40 μm), the “48 hrs (morphology observations after 48 hours)” value came out at 0. The cytotoxicity at 40 µM in assay [2] was determined as 0%.

For the compound `CCCCCCCOc1ccc(S(=O)(=O)c2cnc3ccc([S+](C)[O-])cc3c2N2CCN(C)CC2)cc1` (centres unmarked) [Compound 259], in assay [1] (20 μm), the “48 hrs (morphology observations)” value is on record as “*** (more than 50% but less than 100% of endothelial cells vesicularize in cell shape)” and the Cell death is on record as 95%. For the same compound, the “48 hrs (morphology observations after 48 hours)” value in assay [2] (Conc. 20 μm) was “*** (100% of endothelial cells vesicularize in cell shape)”. Moreover, the cytotoxicity at 20 µM in assay [2] came to 100%.

Take `CCOC(=O)C1CCN(c2c(S(=O)(=O)c3ccc(CC)cc3)cnc3ccc(OC(F)(F)F)cc23)CC1` [Compound 47]: in assay [1] (40 μm), the Cell death was found to be 50%. For the same compound, the “48 hrs (morphology observations after 48 hours)” value in assay [2] (Conc. 40 μm) was 0. In assay [2], the cytotoxicity at 40 µM stood at 10%.

On to `COc1ccc(S(=O)(=O)c2cnc3ccc(SC)cc3c2N2CCC(N3CCCCC3)CC2)cc1OC` [Compound 121], for which the Cell death in assay [1] (40 μm) is given as 50%. Further, the “48 hrs (morphology observations after 48 hours)” value in assay [2] (Conc. 40 μm) is listed as “*** (100% of endothelial cells vesicularize in cell shape)”. Further, in assay [2], the cytotoxicity at 40 µM stood at 40%.

For the compound `CCc1ccc(S(=O)(=O)c2cnc3ccc(OC(F)(F)F)cc3c2N2CCC(CO)CC2)cc1` [Compound 48], the Cell death in assay [1] (40 μm) is listed as 60%. Besides, the “48 hrs (morphology observations after 48 hours)” value in assay [2] (Conc. 40 μm) stood at 0. Further, the cytotoxicity at 40 µM in assay [2] came to 10%.

Consider `CCCCOc1ccc(S(=O)(=O)c2cnc3ccc([S+](C)[O-])cc3c2N2CCC(N3CCCN(C)CC3)CC2)cc1` (centres unmarked) [Compound 241], for which, in assay [1] (40 μm), the Cell death is 40%. Further, the “48 hrs (morphology observations after 48 hours)” value in assay [2] (Conc. 10 μm) was 0. For the same compound, the cytotoxicity at 10 µM in assay [2] is 0%.

For `COc1ccc(S(=O)(=O)c2cnc3ccc(OC(F)(F)F)cc3c2N2CCC(N3CCCCC3)CC2)cc1` [Compound 43], in assay [1] (40 μm), the “48 hrs (morphology observations)” value is “*** (more than 50% but less than 100% of endothelial cells vesicularize in cell shape)” and the Cell death stood at 100%. Further, in assay [2] (Conc. 40 μm), the “48 hrs (morphology observations after 48 hours)” value was “*** (100% of endothelial cells vesicularize in cell shape)”. Moreover, in assay [2], the cytotoxicity at 40 µM came out at 90%.

Take `COc1ccc(S(=O)(=O)c2cnc3ccc(OC(F)(F)F)cc3c2N2CCC(N3CCCCC3)CC2)cc1OC` [Compound 56]: in assay [1] (40 μm), the “48 hrs (morphology observations)” value is “* (50% or less of cells vesicularize in cell shape)” and the Cell death was found to be 20%. In assay [2] (Conc. 40 μm), the “48 hrs (morphology observations after 48 hours)” value came to 0. Further, in assay [2], the cytotoxicity at 40 µM was found to be 30%.

`CCc1ccc(S(=O)(=O)c2cnc3ccc(C(=O)O)cc3c2N2CCC(N3CCCCC3)CC2)cc1` [Compound 67]: the Cell death in assay [1] (40 μm) came to 10%. For the same compound, the “48 hrs (morphology observations after 48 hours)” value in assay [2] (Conc. 40 μm) turned out to be 0. In assay [2], the cytotoxicity at 40 µM is 0%.

For the compound `O=[N+]([O-])c1ccc(S(=O)(=O)c2cnc3ccc(OC(F)(F)F)cc3c2N2CCC(O)CC2)cc1` [Compound 61], the Cell death in assay [1] (40 μm) was 50%. Also, in assay [2] (Conc. 40 μm), the “48 hrs (morphology observations after 48 hours)” value was determined as 0. The cytotoxicity at 40 µM in assay [2] came to 20%.

Consider `CCc1ccc(S(=O)(=O)c2cnc3ccc(CC#N)cc3c2N2CCC(N3CCCCC3)CC2)cc1` [Compound 55], for which the Cell death in assay [1] (40 μm) is given as 70%. Besides, in assay [2] (Conc. 40 μm), the “48 hrs (morphology observations after 48 hours)” value was determined as 0. The cytotoxicity at 40 µM in assay [2] was found to be 50%.

With `CCCCOc1ccc(S(=O)(=O)c2cnc3ccc([S+](C)[O-])cc3c2N2CCCN(CCN3CCCC3)CC2)cc1` (centres unmarked) [Compound 210], in assay [1] (40 μm), the “48 hrs (morphology observations)” value is reported as 0 and the Cell death turned out to be 50%. Moreover, the “48 hrs (morphology observations after 48 hours)” value in assay [2] (Conc. 40 μm) is reported as “*** (100% of endothelial cells vesicularize in cell shape)”. Further, in assay [2], the cytotoxicity at 40 µM came to 70%.

Take `CCc1ccc(S(=O)(=O)c2cnc3ccc(OC(F)(F)F)cc3c2N2CCC(N3CCCC3)CC2)cc1` [Compound 46]: in assay [1] (40 μm), the “48 hrs (morphology observations)” value was “**** (100% of endothelial cells vesicularize in cell shape and look flattened in morphology (indicating disintegration of the cell body))”. Besides, the cytotoxicity at 40 µM in assay [1] and in assay [2] was 100% in each case. In addition, the “48 hrs (morphology observations after 48 hours)” value in assay [2] (Conc. 40 μm) is “**** (100% of endothelial cells vesicularize in cell shape and look flattened in morphology (indicating disintegration of the cell body))”.

Regarding `CCCCOc1ccc(S(=O)(=O)c2cnc3ccc(C(=O)OCC)cc3c2N2CCC(N3CCC(N4CCCCC4)CC3)CC2)cc1` [Compound 216], in assay [1] (40 μm), the “48 hrs (morphology observations)” value was “**** (100% of endothelial cells vesicularize in cell shape and look flattened in morphology (indicating disintegration of the cell body))”. Besides, the cytotoxicity at 40 µM in assay [1] and in assay [2] was 100% each time. Further, the “48 hrs (morphology observations after 48 hours)” value in assay [2] (Conc. 40 μm) was “**** (100% of endothelial cells vesicularize in cell shape and look flattened in morphology (indicating disintegration of the cell body))”.

As for `COc1ccc(S(=O)(=O)c2cnc3ccc(OC(F)(F)F)cc3c2N2CCCC(O)C2)cc1OC` (centres unmarked) [Compound 70], in assay [1] (40 μm), the “48 hrs (morphology observations)” value is listed as “*** (more than 50% but less than 100% of endothelial cells vesicularize in cell shape)” and the Cell death was determined as 40%. For the same compound, the “48 hrs (morphology observations after 48 hours)” value in assay [2] (Conc. 40 μm) came out at 0. The cytotoxicity at 40 µM in assay [2] is 10%.

For `CCCCOc1ccc(S(=O)(=O)c2cnc3ccc(S(C)(=O)=O)cc3c2N2CCCN(C)CC2)cc1` [Compound 164], in assay [1] (40 μm), the “48 hrs (morphology observations)” value is “**** (100% of endothelial cells vesicularize in cell shape and look flattened in morphology (indicating disintegration of the cell body))”; the Cell death came to 95%. Further, the “48 hrs (morphology observations after 48 hours)” value in assay [2] (Conc. 40 μm) was “**** (100% of endothelial cells vesicularize in cell shape and look flattened in morphology (indicating disintegration of the cell body))”. Further, in assay [2], the cytotoxicity at 40 µM worked out at 100%.

Take `CCOC(=O)c1ccc2ncc(S(=O)(=O)c3ccc(CC)cc3)c(NN3CCN(C)CC3)c2c1` [Compound 84]: the cytotoxicity at 40 µM in assay [1] and in assay [2] was 100% throughout. Besides, in assay [2] (Conc. 40 μm), the “48 hrs (morphology observations after 48 hours)” value was “* (50% or less of cells vesicularize in cell shape)”.
